Where “and” joins values, the source holds several entries; their conditions need not be identical. Identical values can stand only once. Calls of active or inactive are those of the source.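 The calls were made as follows: active = curve reaches 40% activation over neutral controls at an AC40 no higher than the top valid tested concentration; inconclusive = no clear call, values can overlap the other calls; inactive = signal moving opposite to the expected increase, and the rest.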

For the assay, the system named is INS-1E GLuc insulin secretion reporter, luminescence, 2-3 h. Kind of assay: activators of glucose-dependent insulin secretion, dose response, cell-based, INS-1E, Gaussia luciferase, luminescence, cherry-pick, set 2 (AID 977607).
As to `COc1ccccc1CCn1cnc(-c2cccc(F)c2)c1CC(C)C`, the AC40 is 11.3 µM. Take `CC1(C(=O)NS(=O)(=O)c2ccc(Cl)s2)CCN1C(=O)C1(c2ccccc2)CCCC1` (stereo not given): the AC40 is 10.7 µM. Consider `COc1cc(C(=O)Nc2ccn(C)n2)ccc1OC(F)F`, for which the AC40 was > 35 µM (inactive). Regarding `Cc1cc(NC(=O)c2ccccc2F)n(-c2nc3ccccc3[nH]2)n1`, the AC40 was 5.86 µM.

For the compound `OC[C@@H]1[C@@H](c2ccc(C#CC3CCCC3)cc2)[C@@H]2CN(CCC(F)(F)F)CCCCN12`, the AC40 is 6.02 µM. The same measure for `O=S(=O)(c1ccccc1F)N1C[C@@H]2N[C@H](C1)C2c1ccc(/C=C/c2ccccc2)cc1` (stereo not given in full): 6.46 µM. Regarding `COc1ccc(-c2cnnn2-c2ccc(N)cc2)cc1OC`, the AC40 was > 35 µM (inactive). On to `O=C(Nc1ccc(C(F)(F)F)cc1)N1C[C@@H]2N[C@H](C1)C2c1ccc(/C=C/c2ccccc2)cc1` (stereo not given in full), for which the AC40 was 8.24 µM and 1.64 µM. The same measure for `Cc1ccc(-c2ccc(C3[C@@H]4CN(Cc5cccc(F)c5)C[C@H]3N4)cc2)cc1` (stereo not given in full): 3.07 µM. As to `COc1ccc(-c2cc3ccccc3oc2=O)cc1NC(=S)NC(=O)c1ccc2c(c1)OCCO2`, the AC40 was 4.75 µM. The same measure for `CCCCCCn1c(N(CC)CC)nc2c1c(=O)[nH]c(=O)n2C`: 23.8 µM; for `O=C(O)c1ccc(-n2nnnc2SCc2ccccc2F)cc1`: 0.0781 µM. Regarding `Cc1cc(C)cc(NC(=O)Cc2ccc(-n3cccc3)cc2)c1`, the AC40 was 8.29 µM. As for `CCCCCc1cc(=O)oc2c(C(CCN3CCCC(C)C3)c3ccc(OC)cc3)c(OC)cc(OC)c12` (stereo not given), the AC40 is 12 µM. In the case of `Clc1ccc(-c2ccnc(Oc3cc(Cl)ccc3Cl)n2)cc1`, the AC40 was 7.53 µM.

As to `Clc1ccc(-c2ccnc(Oc3ccc4ccccc4c3)n2)cc1`, the AC40 was 8.45 µM. Consider `O=C(N/N=C/c1ccc(O)cc1O)NC12CC3CC(CC(C3)C1)C2`, for which the AC40 was 18.1 µM. For the compound `O=C(COc1ccccc1)Nc1sc2c(c1C(=O)NCc1cccnc1)CCCC2`, the AC40 was 13.1 µM. With `COc1cccc(OCc2nc3c4cnn(-c5ccccc5)c4ncn3n2)c1`, the AC40 is 8.5 µM. The result for `COc1ccc(N2CCN(c3ccc(NC(=O)C4CCCCC4)cc3C#N)CC2)cc1` reads 2.8 µM; that for `COc1ccc(/C=N/N(C(C)=O)c2nc(-c3ccc(C)cc3)cs2)cc1`, 0.895 µM. The result for `Cc1cc(Nc2ccc(Cl)cc2)nc(NCc2ccccc2)n1` reads 9.24 µM; that for `Cc1cccc(C(C)C)c1NC(=O)COC(=O)c1cccc(S(=O)(=O)N2CCc3ccccc3C2)c1`, 10.9 µM. The result for `CCOC(=O)c1c(-n2cnnn2)sc2c1CCCC2` reads 14.6 µM; that for `Cc1ccccc1Cn1ccc(NC(=O)c2cc3nc(-c4ccco4)cc(C(F)(F)F)n3n2)n1`, 4.72 µM; that for `CCOC(=O)Nc1cccc(OCC(=O)Nc2ccc3c(c2)CCC3)c1`, 7.83 µM.

Consider `C=CCNc1nc(NCc2ccco2)nc(OCC)n1`, for which the AC40 is > 35 µM (inactive). Take `CC(C)(C)S(=O)N1Cc2cc(C(=O)Nc3ccc(-c4ccccc4)cc3)nc(-c3cccc(-c4cccc(F)c4)c3)c2[C@@H]1CCO` (stereo not given in full): the AC40 was 6.27 µM. The result for `N#Cc1c(-c2ccncc2)cc(-c2ccc(F)cc2)nc1N` reads 2.96 µM; that for `CCOc1ncccc1C(=O)Nc1ccc(S(=O)(=O)Nc2nc(C)cc(C)n2)cc1`, 33.2 µM. For `CC(NCC(O)COCCC12CC3CC(CC(C3)C1)C2)c1ccccc1` (stereo not given), the AC40 is 14.9 µM.

For `O=C(O)c1ccc(-n2nc(-c3ccccc3)c3ccccc3c2=O)cc1`, the AC40 is > 35 µM (inactive). The same measure for `CC(C)Nc1nc(Cl)nc(NC(C)C)n1`: 11.6 µM; for `CCc1nc(N)nc2c1C(=O)CC(C)(C)C2`: > 35 µM (inactive); for `COc1ccc(C(=O)C2CCCN(C(=O)c3n[nH]c4c3CCCC4)C2)cc1OC` (stereo not given): 3.89 µM.

Consider `Cc1ccc(NC(=O)CNC(=O)c2sc3ccccc3c2Cl)nc1`, for which the AC40 was 14.3 µM.

Consider `CCn1nc(C)c(NC(=O)c2cnn3c(C(F)F)cc(-c4ccccc4)nc23)c1C`, for which the AC40 is 3.84 µM. On to `COc1ccc(C(=O)NC(=S)Nc2ccc3c4c(cccc24)CC3)cc1OC`, for which the AC40 was 7.84 µM. The result for `O=C(CCn1ccc2cc(S(=O)(=O)N3CCCC3)ccc21)NCc1cccc(F)c1` reads 9.56 µM; that for `COc1cc(/C=N/NC(=O)Nc2ccccc2)ccc1OCCOc1ccccc1C`, 2.29 µM. The result for `NC(=O)COC(=O)c1ccccc1Oc1ccccc1` reads 6.24 µM; that for `CC(C)Sc1nc2c(c(=O)[nH]c(=O)n2C)n1Cc1ccc(Cl)cc1`, 19.9 µM. The same measure for `COc1cc2nc(N3CCN(c4cc(C)ccc4C)CC3)nc(N)c2cc1OC`: 8.44 µM; for `Cc1cccc(S(=O)(=O)N2C[C@@H]3N[C@H](C2)C3c2ccc(-c3ccccc3F)cc2)c1` (stereo not given in full): 5.72 µM; for `CCN(Cc1ccccc1)S(=O)(=O)c1ccc(C(=O)N(CCCN(C)C)c2nc3cc(C)cc(C)c3s2)cc1`: 17.4 µM. Turning to `COc1cc2ccc(CC(=O)O)cc2cc1OC`, the AC40 was 2.69 µM. The result for `CCOC(=O)c1ccc(Nc2ncnc3ccc(C)cc23)cc1` reads 12.4 µM; that for `CC(C)(c1ccccc1)c1ccc(OCC(O)CNC2CCN(Cc3ccccc3)CC2)cc1` (stereo not given), 11.8 µM; that for `CC(C)(C(=O)N1CCC1(C)C(=O)NS(=O)(=O)c1ccc(Br)cc1)c1ccccc1` (stereo not given), 12.7 µM. The result for `O=C(NC(=S)Nc1ccc(NC(=O)c2cccs2)cc1)c1cc2ccccc2o1` reads 14.3 µM; that for `COc1cc(CNCCc2ccccc2)cc(Cl)c1OCc1ccccc1`, 9.79 µM; that for `Fc1ccc(-c2ccc(C3[C@@H]4CN(Cc5ccccc5)C[C@H]3N4)cc2)cc1` (stereo not given in full), 6.57 µM. The same measure for `COc1ccc(C2=NN(C(=O)c3ccco3)C(c3cccs3)C2)cc1OC` (stereo not given): 1.94 µM. Take `C=C[C@@]1(C)CC(=O)[C@]2(O)[C@@]3(C)[C@@H](O)CCC(C)(C)[C@@H]3[C@H](O)[C@H](OC(C)=O)[C@@]2(C)O1`: the AC40 was 0.0336 µM.

For `CC(C)CC#Cc1ccc2c(c1)O[C@@H](CN(C)Cc1cccc(F)c1)[C@H](C)CN([C@@H](C)CO)S2(=O)=O`, the AC40 was 7.13 µM. Regarding `COc1nc(-c2ccc(Cl)cc2)ccc1-c1noc(-c2ccco2)n1`, the AC40 is 19.5 µM. As to `COc1cc2c(cc1OC)-c1cc(Nc3ccccc3Br)nc(=O)n1CC2`, the AC40 is 0.366 µM. Take `COc1ccc(NC(=O)COc2ccc(C(=O)NC3CCCc4ccccc43)cc2OC)cc1` (stereo not given): the AC40 is 6.54 µM. For the compound `CCOC(=O)c1oc2cc(O)cc(C)c2c1C`, the AC40 is 15.1 µM. With `COc1cc2sc3ccc(C#Cc4ccc(N)cc4)cc3c(=O)c2cc1OC`, the AC40 was 33.4 µM.

In the case of `CS(=O)(=O)c1ccc2nc(NC(=O)Nc3ccc(Cl)c(Cl)c3)sc2c1`, the AC40 is 4.78 µM. Consider `O=c1c2cc(F)ccc2sn1-c1ccccc1Cl`, for which the AC40 is 1.85 µM. The same measure for `Cc1ccc(Oc2ncc(-c3ccc(Cl)cc3)cn2)cc1`: 6.86 µM; for `COc1ccc(S(=O)(=O)N2CCc3ccccc32)cc1C(=O)Nc1ccc(C(N)=O)cc1`: 16.3 µM. For the compound `Fc1ccccc1-c1ccc(C2[C@@H]3CN(Cc4ccccc4)C[C@H]2N3)cc1` (stereo not given in full), the AC40 was 7.05 µM. The result for `C=CCn1c(=NC(=O)c2cc(Cl)sc2Cl)sc2cc(S(N)(=O)=O)ccc21` reads 5.55 µM; that for `CC(C)(C)c1ccccc1OCC(O)CN1CCN(c2ccccn2)CC1` (stereo not given), 13.7 µM. On to `Oc1ccccc1-c1cc(C(F)(F)C(F)F)nc(-c2ccccc2)n1`, for which the AC40 was 7.7 µM. The same measure for `NC(N)=N/N=C/c1ccc(OCc2ccccc2)c(OCc2ccccc2)c1`: 10.2 µM. The same measure for `Cc1ccc2nc(Cl)nc(-c3ccccc3)c2c1`: 12.2 µM. The same measure for `Fc1ccc(-c2cc(C(F)(F)F)nc(-n3cncn3)n2)cc1`: 0.52 µM; for `O=C(Nc1ccc(SC(F)F)cc1)c1cccc2nc3ccccc3nc12`: 9.11 µM; for `COc1ccccc1NC(=O)N1CCCCN2[C@@H](CO)[C@@H](c3ccc(C#CC4CCCC4)cc3)[C@@H]2C1`: 16.5 µM. On to `CCOc1ccc(CCNC(=O)Cn2ccc3ccccc3c2=O)cc1OCC`, for which the AC40 is > 35 µM (inactive). With `C(=C\c1ccc(C2[C@@H]3CN(Cc4nccs4)C[C@H]2N3)cc1)/c1ccccc1` (stereo not given in full), the AC40 was 17 µM. On to `COc1cc2c(cc1OC)C1=C(C#N)CCC(=NC(=O)c3ccco3)N1CC2`, for which the AC40 was 7.7 µM. Regarding `Cc1[nH]c2ccc(OC(F)(F)F)cc2c1CCNCc1ccc(Cl)cc1`, the AC40 is 6.14 µM. In the case of `CC(C)C[C@H](NC(=O)c1[nH]cnc1C(=O)N[C@@H](C)c1ccccc1)C(=O)OC(C)(C)C`, the AC40 was 31.3 µM. The result for `COC(=O)C1=C(C)N(C)C(=NCc2cccc(C(F)(F)F)c2)NC1c1ccc(C(F)(F)F)cc1` (stereo not given) reads 18.1 µM; that for `CCCCNc1cc(Cl)nc(N)n1`, 7.24 µM.

With `CNc1nc(Cl)nc2c1ncn2-c1ccccc1`, the AC40 is 15.6 µM.

In the case of `COc1ccc(-c2ccc3c(N)c(C(=O)c4ccc(OC)c(OC)c4)sc3n2)cc1`, the AC40 is 5.83 µM. The same measure for `COC(=O)c1ccc(OC)c(OC2CCCC2)c1`: 0.254 µM; for `COc1ccc2c(c1)CCc1c(C(=O)Nc3cc(C)n(Cc4ccc(Cl)cc4)n3)noc1-2`: 6.07 µM; for `CC(C)(C)c1ccc(-c2cc(-c3ccccc3O)[nH]n2)cc1`: 6.61 µM. The result for `C/C(=N\NC(=O)c1cccc(Br)c1)c1ccc(Br)cc1` reads 16.6 µM.

For the compound `Cc1nnn(-c2nonc2N)c1C(=O)N/N=C/c1cccc2ccccc12`, the AC40 is 7.29 µM. The same measure for `COc1ccc(/C=N/NC(=O)c2ccc(COc3ccccc3Cl)o2)c(OC)c1C`: 5.44 µM. Regarding `CN(C)Cc1ccccc1Sc1ccc2c(c1)CCCC2`, the AC40 is 16.6 µM. The result for `COc1ccc(C(=O)Cc2ccc3c(c2)OCO3)c(O)c1` reads > 35 µM (inactive); that for `Cc1cc(C)nc(Nc2n[nH]c(COc3ccc4ccccc4c3)n2)n1`, 7.71 µM. With `O=C(Nc1nc2ccccc2n1Cc1ccc(Cl)cc1)c1ccco1`, the AC40 was 7.18 µM. In the case of `O=C(Nc1ccc2c(c1)OCO2)c1sc2cc(Cl)ccc2c1Cl`, the AC40 was 12 µM.

With `OC(c1ccccc1)(c1ccccc1)C1CCN(CCCOc2ccc(-c3ccsc3)cc2)CC1`, the AC40 was 8.81 µM.

With `C/C(=N\NC(=O)c1ccc(Cl)c(Cl)c1)c1ccc(Br)s1`, the AC40 was 9.32 µM.

The record behind these values is PubChem BioAssay AID977607 (Broad Institute, 2014).
